Test results: patent publication US20230105212A1, “BIPHENYL DERIVATIVE INHIBITOR, PREPARATION METHOD THEREFOR AND USE THEREOF” (SHANGHAI HANSOH BIOMEDICAL CO., LTD., priority 2020, published 2023)

Columns and labels:
human PD-1/PD-L1 binding = biological target: T1, human PD-1/PD-L1 binding (Homo sapiens, UniProt Q9NZQ7); assay: Inhibition of human PD-1/PD-L1 binding (TR-FRET/HTRF); conditions: TR-FRET, PD-L1-His and PD-1-Fc; read-out: PD-1/PD-L1 binding IC50
T1 construct: PD-L1-His protein (19 to 238 amino acids) (Abcam #ab167713); purchased Abcam (PD-L1-His); R&D (PD-1-Fc) ab167713; 1086-PD
Source text: Test Embodiment 1: Test of Inhibitory Effect of the Compounds of the Present Disclosure on Human PD-1/PD-L1 Binding
Experimental purpose: The purpose of this test embodiment was to measure the inhibitory activity of the compounds on human PD-1/PD-L1 binding.
Experimental reagents: Binding Domain diluent buffer was purchased from Cisbio Company, Cat. No.: 62DLBDDF; MAb Anti-6HIS Eu cryptate Gold was purchased from Cisbio Company with the article number of 61HI2KLA; PAb Anti Human IgG-XL665 was purchased from Cisbio Company with the article number of 61HFCXLB; PD-L1-His protein was purchased from Abcam Company with the article number of ab167713; PD-1-Fc protein was purchased from R&D Company with the article number of 1086-PD; Detection buffer was purchased from Cisbio Company with the article number of 62SDBRDD; 384-well plate was purchased from PerkinElmer Company with the article number of 6007290.
Experimental method: In order to test the inhibitory activity of the compounds on human PD-1/PD-L1 binding, the method of time-resolved fluorescence resonance energy transfer (TR-FRET) was used in this experiment to test the inhibition of the compounds on human PD-1/PD-L1 binding, and the half inhibitory concentration IC50 of inhibitory activity of the compounds on human PD-1/PD-L1 binding was obtained.
This experiment was performed in a 384-well plate with a total reaction volume of 20 μL. Compounds were diluted to different concentrations (10 μM or 1 μM starting, 3-fold dilution, 11 doses) using assay buffer Binding Domain diluent buffer (Cisbio #62DLBDDF), then PD-L1-His protein (19 to 238 amino acids) (Abcam #ab167713) was diluted to 10 nM with assay buffer, and PD-1-Fc protein (25 to 167 amino acids) (R&D #1086-PD) was diluted to 20 nM with assay buffer; the compound, PD-L1 protein and PD-1 protein were added to a 384-well plate respectively, and the total volume was 10 μL, then centrifuged at 1000 rpm for 1 minute to mix well, and incubated for 60 minutes at room temperature. Then 10 μL of a mixed solution of MAb Anti-6HIS Eu cryptate Gold (Cisbio #61HI2KLA) and PAb Anti Human IgG-XL665 (Cisbio #61HFCXLB) diluted by HTRF Detection buffer was added to each well, and centrifuged at 1000 rpm for 1 minute to mix well. The reaction was carried out at room temperature for 3 hours or at 4° C. overnight, then a microplate reader (BioTek Synergy H1) was put into for reading; the excitation wavelength was 340 nm, and the emission wavelengths were 620 nm and 665 nm.
The ratio of fluorescence readings at 620 nm and 665 nm (665 nm/620 nm) was calculated, and the inhibition rate was calculated.

[1] = biological target: T2, PD-L1 protein on the surface of MC38-hPDL1 tumor cells (Homo sapiens, UniProt Q9NZQ7); assay: Induction of endocytosis of PD-L1 on the surface of tumor cells (flow cytometry); assay type: cell-based; conditions: 16 hours incubation; for Emax: MC38-hPDL1 cells, read-out: MC38 maximum endocytosis rate; for IC50: inducing endocytosis of PD-L1, MC38-hPDL1 cells, read-out: MC38 IC50
T2 construct: expressed in transfected cells; host or cells: MC38-hPDL1 (mouse colon cancer cells)
Source text: Test Embodiment 2. Test of the Activity of Compounds of the Present Disclosure on Inducing the Endocytosis of PD-L1 Protein on the Surface of Tumor Cells
Experimental purpose: The purpose of this test embodiment was to test the activity of the compound on inducing the endocytosis of PD-L1 on the surface of tumor cells.
Experimental method: In order to test the activity of the compound on inducing the endocytosis of PD-L1, in this experiment, the activity of the compound on inducing the endocytosis of PD-L1 was tested by detecting the change degree of PD-L1 on the tumor cell surface with fluorescently labeled anti-PD-L1 antibody, and the IC50 of activity of the compound on inducing the endocytosis of PD-L1 was obtained.
The mouse colon cancer cells MC38-hPDL1 with high expression of hPD-L1 were collected, and adjusted to a suitable density and plated in a 24-well plate, and placed in a 37° C., 5% CO2 incubator to adhere overnight. Compounds were prepared into different concentrations by medium and added to a 24-well plate, and a vehicle control well was set up. After the cells were incubated in a 37° C., 5% CO2 incubator for 16 hours, the 24-well plate was taken out, and MC38-hPDL1 cells with different treatments in the plate were collected. After the cells were washed once with FACS buffer (PBS containing 0.5% BSA), and the cells were prepared to an appropriate density with FACS buffer. PE Mouse Anti-Human CD274 antibody (BD Pharmingen #557924) was added, and the cells were shaken at room temperature and incubated for 30 minutes without light, then the cells were washed twice with FACS buffer, resuspended in 100 μL of PBS, and a flow cytometer was used to detect the fluorescent signal on the cell surface, and the isotype control was set as a negative control.
The endocytosis rate of the compounds was calculated from the fluorescence signals of different treatment groups, and the compound concentration and endocytosis rate were fitted by nonlinear regression using GraphPad Prism software, and IC50 values were obtained, as shown in Table 2.

T2 sequence (Q9NZQ7 19-290): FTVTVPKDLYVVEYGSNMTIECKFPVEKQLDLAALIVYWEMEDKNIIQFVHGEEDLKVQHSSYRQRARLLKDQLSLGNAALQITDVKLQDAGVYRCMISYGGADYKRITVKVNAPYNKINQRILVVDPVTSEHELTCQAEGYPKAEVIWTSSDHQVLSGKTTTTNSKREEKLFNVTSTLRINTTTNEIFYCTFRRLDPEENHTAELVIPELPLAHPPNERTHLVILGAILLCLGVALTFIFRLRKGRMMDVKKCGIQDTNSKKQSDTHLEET
T1 sequence (Q9NZQ7 19-238): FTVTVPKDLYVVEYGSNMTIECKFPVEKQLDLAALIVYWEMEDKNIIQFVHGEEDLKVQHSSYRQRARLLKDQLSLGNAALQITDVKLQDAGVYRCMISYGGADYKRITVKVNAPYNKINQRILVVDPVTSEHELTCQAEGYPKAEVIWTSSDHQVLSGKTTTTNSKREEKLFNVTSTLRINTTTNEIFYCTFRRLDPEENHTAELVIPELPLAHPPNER

Row | SMILES | IC50 (human PD-1/PD-L1 binding) | Emax [1] | IC50 [1]
1 | COc1nc(-c2cccc(-c3cccc(NC(=O)c4nc5c(n4C)CCN(C)C5)c3Cl)c2Cl)ccc1CN1CC2CC(C1)N2C(=O)CC#N [Embodiment 208, N-(2,2′-Dichloro-3′-(5-((6-(2-cyanoacetyl)-3,6-diazabicyclo[3.1.1]heptan-3-yl)methyl)-6-methoxypyridin-2-yl)-[1,1′-biphenyl]-3-yl)-1,5-dimethyl-4,5,6,7-tetrahydro-1H-imidazo[4,5-c]pyridine-2-carboxamide] | 9 nM | 81% | 
2 | COc1cc(C(=O)Nc2cccc(-c3cccc(NC(=O)c4nc5c(n4C)CCN(C)C5)c3Cl)c2C)ncc1CO [Embodiment 49, N-(2-Chloro-3′-(5-(2-hydroxymethyl)-4-methoxypicolinamido)-2′-methyl-[1,1′-biphenyl]-3-yl)-1,5-dimethyl-4,5,6,7-tetrahydro-1H-imidazo[4,5-c]pyridine-2-carboxamide] | 5.1 nM | 93% | 10.7 nM
3 | COc1cc(NCc2cnc(C(=O)Nc3cccc(-c4cccc(NC(=O)c5nc6c(n5C)CCN(C)C6)c4Cl)c3Cl)cc2OC)ccn1 [Embodiment 2, N-(2,2′-Dichloro-3′-(4-methoxy-5-(((2-methoxypyridin-4-yl)amino)methyl)picolinamido)-[1,1′-biphenyl]-3-yl)-1,5-dimethyl-4,5,6,7-tetrahydro-1H-imidazo[4,5-c]pyridine-2-carboxamide] | 5 nM | 89% | 4.6 nM
4 | COc1cc(NCc2cnc(C(=O)Nc3cccc(-c4cccc(NC(=O)c5nc6c(n5C)CCN(C)C6)c4Cl)c3C)cc2OC)ccn1 [Embodiment 1, N-(2-Chloro-3′-(4-methoxy-5-(((2-methoxypyridin-4-yl)amino)methyl)picolinamido)-2′-methyl-[1,1′-biphenyl]-3-yl)-1,5-dimethyl-4,5,6,7-tetrahydro-1H-imidazo[4,5-c]pyridine-2-carboxamide] | 6.9 nM | 88% | 3.4 nM
5 | COc1nc(C(=O)Nc2cccc(-c3cccc(NC(=O)c4nc5c(n4C)CCN(C)C5)c3Cl)c2C)ccc1CN[C@@H](C)CO [Embodiment 43, (S)—N-(2-Chloro-3′-(5-(((1-hydroxypropan-2-yl)amino)methyl)-6-methoxypicolinamido)-2′-methyl-[1,1′-biphenyl]-3-yl)-1,5-dimethyl-4,5,6,7-tetrahydro-1H-imidazo[4,5-c]pyridine-2-carboxamide] | 4.1 nM |  | 
6 | COc1cc(C(=O)Nc2cccc(-c3cccc(NC(=O)c4nc5c(n4C)CCN(C)C5)c3Cl)c2C)ncc1C(C)(C)O [Embodiment 50, N-(2-Chloro-3′-(5-(2-hydroxypropan-2-yl)-4-methoxypicolinamido)-2′-methyl-[1,1′-biphenyl]-3-yl)-1,5-dimethyl-4,5,6,7-tetrahydro-1H-imidazo[4,5-c]pyridine-2-carboxamide] | 9 nM |  | 
7 | CCN1CCc2c(nc(C(=O)Nc3cccc(-c4cccc(NC(=O)c5cc(OC)c(CO)cn5)c4C)c3Cl)n2C)C1 [Embodiment 88, N-(2-Chloro-3′-(5-(hydroxymethyl)-4-methoxypicolinamido)-2′-methyl-[1,1′-biphenyl]-3-yl)-5-ethyl-1-methyl-4,5,6,7-tetrahydro-1H-imidazo[4,5-c]pyridine-2-carboxamide] | 9 nM |  | 
8 | COc1cc(NCc2cnc(C(=O)Nc3cccc(-c4cccc(NC(=O)c5nc6c(n5C)CCN(CC5CC5)C6)c4Cl)c3Cl)cc2OC)ccn1 [Embodiment 83, 5-(Cyclopropylmethyl)-N-(2,2′-dichloro-3′-(4-methoxy-5-(((2-methoxypyridin-4-yl)amino)methyl)picolinamido)-[1,1′-biphenyl]-3-yl)-1-methyl-4,5,6,7-tetrahydro-1H-imidazo[4,5-c]pyridine-2-carboxamide] | 2.7 nM |  | 

Continued, values first:

Row | IC50 (human PD-1/PD-L1 binding) | Emax [1] | IC50 [1] | SMILES
9 | 6 nM |  |  | COc1cc(C(=O)Nc2cccc(-c3cccc(NC(=O)c4nc5c(n4C)CCN(C)C5)c3Cl)c2C)ncc1CNC1CN(C(C)=O)C1 [Embodiment 100, N-(3′-(5-(((1-Acetylazetidin-3-yl)amino)methyl)-4-methoxypicolinamido)-2-chloro-2′-methyl-[1,1′-biphenyl]-3-yl)-1,5-dimethyl-4,5,6,7-tetrahydro-1H-imidazo[4,5-c]pyridine-2-carboxamide]
10 | 8.5 nM |  |  | Cc1nccc(NCc2ccc(C(=O)Nc3cccc(-c4cccc(NC(=O)c5nc6c(n5C)CCN(C)C6)c4Cl)c3C)nc2)c1F [Embodiment 105, N-(2-Chloro-3′-(5-(((3-fluoro-2-methylpyridin-4-yl)amino)methyl)picolinamido)-2′-methyl-[1,1′-biphenyl]-3-yl)-1,5-dimethyl-4,5,6,7-tetrahydro-1H-imidazo[4,5-c]pyridine-2-carboxamide]
11 | 6.5 nM |  |  | Cc1c(NC(=O)c2ccc(CN3CC[C@@H](F)C3)cn2)cccc1-c1cccc(NC(=O)c2nc3c(n2C)CCN(C)C3)c1Cl [Embodiment 106, (R)—N-(2-Chloro-3′-(5-((3-fluoropyrrolidin-1-yl)methyl)picolinamido)-2′-methyl-[1,1′-biphenyl]-3-yl)-1,5-dimethyl-4,5,6,7-tetrahydro-1H-imidazo[4,5-c]pyridine-2-carboxamide]
12 | 7.7 nM |  |  | COc1cc(-c2cccc(-c3cccc(NC(=O)c4nc5c(n4C)CCN(C)C5)c3Cl)c2Cl)cnc1CN1CC(F)C1 [Embodiment 163, N-(2,2′-Dichloro-3′-(6-((3-fluoroazetidin-1-yl)methyl)-5-methoxypyridin-3-yl)-[1,1′-biphenyl]-3-yl)-1,5-dimethyl-4,5,6,7-tetrahydro-1H-imidazo[4,5-c]pyridine-2-carboxamide]
13 | 5 nM |  |  | COc1cc(C(=O)Nc2cccc(-c3cccc(NC(=O)c4nc5c(n4C)CCN(C)C5)c3Cl)c2C)ncc1CN[C@@H]1CCNC1=O [Embodiment 97, (R)—N-(2-Chloro-3′-(4-methoxy-5-(((2-carbonylpyrrolidin-3-yl)amino)methyl)picolinamido)-2′-methyl-[1,1′-biphenyl]-3-yl)-1,5-dimethyl-4,5,6,7-tetrahydro-1H-imidazo[4,5-c]pyridine-2-carboxamide]
14 | 4.7 nM |  |  | COc1cc(CN[C@@H]2CCOC[C@@H]2F)cnc1C(=O)Nc1cccc(-c2cccc(NC(=O)c3nc4c(n3C)CCN(C)C4)c2Cl)c1C [Embodiment 109, N-(2-Chloro-3′-(5-((((3R,4R)-3-fluorotetrahydro-2H-pyran-4-yl)amino)methyl)-3-methoxypicolinamido)-2′-methyl-[1,1′-biphenyl]-3-yl)-1,5-dimethyl-4,5,6,7-tetrahydro-1H-imidazo[4,5-c]pyridine-2-carboxamide]
